Measured values reported in patent US9988405B2, “O-phenyl chalcone compounds and uses thereof” (Neopanora Bio-technology (Zhuhai) Ltd., priority 2014, dated 2018).
Where two headings read alike, the source gives them in different places.

Assays:
[1] = system: human nasopharyngeal carcinoma cells CNE2; experiment: SRB anti-proliferative assay, CNE2; assay type: cell-based; conditions: read-out: Anti-proliferative IC50, CNE2
Procedure: (§1) The present example evaluated the anti-tumor activity of the molecules provided by the present invention. The present example mainly used a method with SRB (sulforhodamine B) dying, in which proteins in the cell were stained with SRB dye to determine protein content in the cell so as to characterize cell growth density. Firstly, the test compound was formulated into a stock solution (10 mM), which was stored at 4° C. in a refrigerator. Prior to beginning the assay, the stock solution was diluted with DMSO into a series of different concentrations. The required concentrations were obtained by diluting with complete growth medium. Well growing cells were seeded in a 96-well plate (5000 cells/well, 100 uL) and cultured in an incubator at 37° C., 5% CO2, and 90% RH. 24 h later, the prepared compound solution (100 μL) was slowly added to cell solution in the 96-well plate, and the well with DMSO (final concentration 0.5%) instead of the drug was used as a drug free control. The plate was incubated for 48 h. In addition, a day 0 plate that was drug free was directly detected after cell seeded in the plate for 24 h. The 96-well plate was taken out and added with trichloroacetic acid (50 μL, final concentration 10%). The plate was incubated at 4° C. for 1 h to fix the cells.
(§2) The plate was washed with ultrapure water and air-dried. The plate was then stained with SRB dye (0.4% in 1% acetic acid, 100 μL) for 30 min at room temperature. The plate was then washed with 1% acetic acid and then air-dried. A Tris base solution (100 μL, 10 mM, pH10.4) was added, after which the plate was gently shaken for 1 h on an orbital shaker to ensure that the dyes were completed dissolved. The optical density (OD) was recorded on a TECAN Infinite M200 Pro multimode reader at 515 nm. The cell growth (% of control)=(OD value of wells added with drug−mean OD value of Day 0 plate)/(OD value of DMSO drug-free control well−mean OD value of Day 0 plate)*100.

[2] = system: human ovary cancer cells A2780; experiment: SRB anti-proliferative assay, A2780; assay type: cell-based; conditions: read-out: Anti-proliferative IC50, A2780
Procedure: as §1, §2

[3] = system: doxorubicin resistant breast cancer cell MCF-7/DOX; experiment: SRB anti-proliferative assay, drug-resistant MCF-7/DOX; assay type: cell-based; conditions: Homo sapiens, MCF7-DOX, read-out: Anti-proliferative IC50, MCF-7/DOX
Procedure: as §1, §2
(§3) We also evaluated the anti-proliferation activities of selected compounds against drug-resistant cancer cell lines.

[4] = system: incristine resistant human ileocecum carcinoma cell HCT-8/VCT; experiment: SRB anti-proliferative assay, drug-resistant HCT-8/VCT; assay type: cell-based; conditions: HCT8/VCT, read-out: Anti-proliferative IC50, HCT-8/VCT
Procedure: as §1, §2, §3

[5] = system: cis-platinum resistant human lung cancer cell A549/CDDP; experiment: SRB anti-proliferative assay, drug-resistant A549/CDDP; assay type: cell-based; conditions: read-out: Anti-proliferative IC50, A549/CDDP
Procedure: as §1, §2, §3

[6] = system: Paclitaxel-resistant human ovarian carcinoma cell A2780/TAX; experiment: SRB anti-proliferative assay, drug-resistant A2780/TAX; assay type: cell-based; conditions: read-out: Anti-proliferative IC50, A2780/TAX
Procedure: as §1, §2, §3

[7] = system: human liver cancer cell HepG2; experiment: SRB anti-proliferative assay, HepG2; assay type: cell-based; conditions: read-out: Anti-proliferative IC50, HepG2
Procedure: as §1, §2

[8] = system: human colon cancer cells HCT8; experiment: SRB anti-proliferative assay, HCT-8; assay type: cell-based; conditions: read-out: Anti-proliferative IC50, HCT-8
Procedure: as §1, §2

[9] = system: tubulin; experiment: Microtubule polymerization inhibition assay (tubulin polymerization assay kit); assay type: biochemical; conditions: 2 mg/ml tubulin, 37° C., fluorescence, 1 hour; read-out: IC50 on inhibition of microtubules polymerization
Procedure: Tubulin polymerization assay kit was used in the example, and the accompanying experimental protocol was followed. The specific method was described below.
Prior to the assay, the compounds were diluted with DMSO into a series of different concentrations and then diluted with sterile ultra-pure water into 10× solution of compounds. A 96-well plate was pre-warmed to 37° C. for 30 min in a multi-functional microplate reader. Reaction solution (2 mg/ml tubulin, 80 mM PIPES pH6.9, 2.0 mM MgCl2, 0.5 mM EGTA, 1.0 mM GTP, 15% glycerin) is prepared by materials needed in microtubule polymerization (tubulin buffer 85 uL, Glycerin buffer 150 μL, general buffer 205 μL, GTP ([…]) 4.4 μL). 5 μL solution of compound were added into the 96-well plate and incubated in a microplate reader for 1 min. DMSO was employed as a control. The plate was taken out and then reaction solution was immediately added ([…]). The plate was then immediately placed back into the reader and vibrated for 5 seconds before recording. The microplate reader was set at 37° C., and monitored in a kinetic model with emission wavelength at 450 nm and excitation wavelength at 360 nm. The plate was mixed and measured every minute and determined for 1 hour. A curve of fluorescence intensity v.s. time was obtained and the inhibition rate was calculated by the following formula. GraphPad Prism software was used to determine the IC50. Inhibition rate=[1−(average value of plateau of test curve−value of time 0)/(average value of plateau of DMSO curve−value of time 0)]*100.

[10] = system: human colon cancer cells SW480; experiment: SRB anti-proliferative assay, SW480; assay type: cell-based; conditions: read-out: Anti-proliferative IC50, SW480
Procedure: as §1, §2

[11] = system: human breast cancer cells MCF7; experiment: SRB anti-proliferative assay, MCF-7; assay type: cell-based; conditions: read-out: Anti-proliferative IC50, MCF-7
Procedure: as §1, §2

[12] = system: human lung cancer cells A549; experiment: SRB anti-proliferative assay, A549; assay type: cell-based; conditions: read-out: Anti-proliferative IC50, A549
Procedure: as §1, §2

[13] = system: A549 cells; experiment: Microtubule re-assembly and mitosis on cellular level (confocal immunofluorescence); assay type: cell-based, human; conditions: 31 nM
Procedure: The method was primarily described here below.
A549 cells were seeded in a confocal culture dish at 8×10^4 cells/dish, grown for 24 h and divided into two groups. DMSO (0.5%) was added to one group followed by culture for 24 h. Compound 3 (31 nM) was added to the other group followed by culture for 24 h. Then cells of two dishes were fixed directly (37° C.). The remaining cells were placed in ice for 1 h, then at 37° C. for 0, 5, 10, and 15 min Cells were then fixed with paraformaldehyde (4%) for 15 min. Then cells were subject to permeabilization buffer for 15 min Primary β-tubulin mouse antibody was added and incubated at room temperature for 1 h.
3 on microtubules, microtubule re-assembly and mitosis: a, c-f, was the solvent control group (0.5% DMSO added), b, g-j was test group (31 nM compound no. 3 added), Scale bars: […].

[14] = doxorubicin resistant MCF-7/DOX, SRB
[15] = vincristine-resistant HCT-8/VCT, SRB
[16] = cis-platinum resistant A549/CDDP, SRB
[17] = paclitaxel-resistant A2780/TAX, SRB

SMILES | IC50 ([1]; CNE-2, CNE2, SRB, 48 h) [nM] | IC50 ([2]; A2780, SRB, 48 h) [nM] | IC50 [3, 14] [nM] | IC50 [4, 15] [nM] | IC50 [5, 16] [nM] | IC50 [6, 17] [nM] | IC50 ([7]; HepG2, SRB, 48 h) [nM] | IC50 ([8]; HCT-8, SRB, 48 h) [nM] | IC50 [9] [nM] | IC50 ([10]; SW480, SRB, 48 h) [nM] | IC50 ([11]; MCF7, MCF-7, SRB, 48 h) [nM] | IC50 ([12]; A549, SRB, 48 h) [nM] | also measured
CN(C)c1ccc(/C=C/C(=O)c2ccccc2-c2ccc(F)cc2)cc1 [compound 2, (E)-3-(4-(Dimethylamino)phenyl)-1-(4′-fluoro[1,1′-biphenyl]-2-yl)prop-2-en-1-one] | 36 | 94 | 45 | 96 | 105 | 49 | 58 | 133 | 3560 | 47 | 66 | 64 | –
COc1ccc(/C=C/C(=O)c2ccccc2-c2cc(OC)c(OC)c(OC)c2)cc1O [compound 4, (E)-3-(3-Hydroxy-4-methoxyphenyl)-1-(3′,4′,5′-trimethoxy[1,1′-biphenyl]-2-yl)prop-2-en-1-one] | – | – | – | – | – | – | – | – | 2780 | – | – | – | IC50 ([1]; CNE-2, 48 h): 37 nM; IC50 ([2]; A2780, 48 h): 69 nM; IC50 [3]: 66 nM; IC50 [4]: 238 nM; IC50 ([5]; A549/CDDP): 93 nM; IC50 ([6]; A2780/TAX): 364 nM; IC50 ([7]; HepG2, 48 h): 46 nM; IC50 ([8]; HCT-8, 48 h): 56 nM; IC50 ([10]; SW480, 48 h): 61 nM; IC50 ([11]; MCF7, 48 h): 82 nM; IC50 ([12]; A549, 48 h): 69 nM
COc1ccc(/C=C/C(=O)c2ccccc2-c2ccc(OC)c(OC)c2OC)cc1O [compound 5, (E)-3-(3-Hydroxy-4-methoxyphenyl)-1-(2′,3′,4′-trimethoxy[1,1′-biphenyl]-2-yl)prop-2-en-1-one] | 45 | 74 | 59 | 266 | 122 | 289 | 52 | 59 | 6500 | 74 | 96 | 55 | –
COc1ccc(/C=C/C(=O)c2ccccc2-c2cccc(F)c2)cc1O [compound 3, (E)-1-(3′-Fluoro[1,1′-biphenyl]-2-yl)-3-(3-hydroxy-4-methoxyphenyl)prop-2-en-1-one] | 17 | 13 | 2 | 57 | 121 | 190 | 14 | 16 | 487 | 12 | 65 | 11 | Abnormal events in mitotic phase [13]: multipolarization of spindle and multinucleation; Effect on filiform structure of microtubule ([13]; 24 h): microtubule depolymerized to form discreet tublin; Automatic re-assembly (polymerization) of tubulin into microtubule after ice incubation ([13]; ice 1 h then 37° C. 0-15 min): obviously inhibited
COc1ccc(/C=C/C(=O)c2ccccc2-c2ccc(F)cc2)cc1B(O)O [compound 1, (E)-(5-(3-(4′-Fluoro[1,1′-biphenyl]-2-yl)-3-oxoprop-1-en-1-yl)-2-methoxyphenyl)boronic acid] | 83 | 63 | 24 | 84 | 74 | 227 | 30 | 63 | 3410 | 41 | 40 | 70 | –
